From ChEMBL document CHEMBL5705899 (Biochem J, 2014)
Active and inactive are the calls of the source. No cut-off for these calls is given here.

How the values were obtained:
Homo sapiens = species on record: Homo sapiens; assay: Inhibition of recombinant human MKK1 (2 to 393 residues) expressed in Escherichia coli assessed as remaining activity at 1 uM using MBP as substrate incubated for 30 mins in presence of [gamma-33P]ATP by filter binding method relative to control
[1] = molecular target: Mitogen-activated protein kinase kinase kinase 9 (Homo sapiens) (UniProt P80192); assay: (§1) Inhibition of recombinant human N-terminal GST-tagged MLK1 (132 to 413 residues) expressed in baculovirus infected Sf21 cells assessed as remaining activity at 1 uM using MBP as substrate incubated for 30 mins in presence of [gamma-33P]ATP by filter binding method relative to control
[2] = molecular target: Dual specificity protein kinase TTK (Homo sapiens) (UniProt P33981); assay: Inhibition of recombinant human N-terminal His6-tagged TTK (1 to 857 residues) expressed in baculovirus infected Sf21 cells assessed as remaining activity at 1 uM using RSRSRSRSRSRSRSR as substrate incubated for 30 mins in presence of [gamma-33P]ATP by filter binding method relative to control
[3] = molecular target: Tau-tubulin kinase 1 (Homo sapiens) (UniProt Q5TCY1); assay: Inhibition of recombinant human N-terminal GST-tagged TTBK1 (1 to 1321 residues) expressed in Escherichia coli assessed as remaining activity at 1 uM using RRKDLHDDEEDEAMSITA as substrate incubated for 30 mins in presence of [gamma-33P]ATP by filter binding method relative to control
Sequence of Tau-tubulin kinase 1 (Homo sapiens) (Q5TCY1 whole entry, the tested form may be a part): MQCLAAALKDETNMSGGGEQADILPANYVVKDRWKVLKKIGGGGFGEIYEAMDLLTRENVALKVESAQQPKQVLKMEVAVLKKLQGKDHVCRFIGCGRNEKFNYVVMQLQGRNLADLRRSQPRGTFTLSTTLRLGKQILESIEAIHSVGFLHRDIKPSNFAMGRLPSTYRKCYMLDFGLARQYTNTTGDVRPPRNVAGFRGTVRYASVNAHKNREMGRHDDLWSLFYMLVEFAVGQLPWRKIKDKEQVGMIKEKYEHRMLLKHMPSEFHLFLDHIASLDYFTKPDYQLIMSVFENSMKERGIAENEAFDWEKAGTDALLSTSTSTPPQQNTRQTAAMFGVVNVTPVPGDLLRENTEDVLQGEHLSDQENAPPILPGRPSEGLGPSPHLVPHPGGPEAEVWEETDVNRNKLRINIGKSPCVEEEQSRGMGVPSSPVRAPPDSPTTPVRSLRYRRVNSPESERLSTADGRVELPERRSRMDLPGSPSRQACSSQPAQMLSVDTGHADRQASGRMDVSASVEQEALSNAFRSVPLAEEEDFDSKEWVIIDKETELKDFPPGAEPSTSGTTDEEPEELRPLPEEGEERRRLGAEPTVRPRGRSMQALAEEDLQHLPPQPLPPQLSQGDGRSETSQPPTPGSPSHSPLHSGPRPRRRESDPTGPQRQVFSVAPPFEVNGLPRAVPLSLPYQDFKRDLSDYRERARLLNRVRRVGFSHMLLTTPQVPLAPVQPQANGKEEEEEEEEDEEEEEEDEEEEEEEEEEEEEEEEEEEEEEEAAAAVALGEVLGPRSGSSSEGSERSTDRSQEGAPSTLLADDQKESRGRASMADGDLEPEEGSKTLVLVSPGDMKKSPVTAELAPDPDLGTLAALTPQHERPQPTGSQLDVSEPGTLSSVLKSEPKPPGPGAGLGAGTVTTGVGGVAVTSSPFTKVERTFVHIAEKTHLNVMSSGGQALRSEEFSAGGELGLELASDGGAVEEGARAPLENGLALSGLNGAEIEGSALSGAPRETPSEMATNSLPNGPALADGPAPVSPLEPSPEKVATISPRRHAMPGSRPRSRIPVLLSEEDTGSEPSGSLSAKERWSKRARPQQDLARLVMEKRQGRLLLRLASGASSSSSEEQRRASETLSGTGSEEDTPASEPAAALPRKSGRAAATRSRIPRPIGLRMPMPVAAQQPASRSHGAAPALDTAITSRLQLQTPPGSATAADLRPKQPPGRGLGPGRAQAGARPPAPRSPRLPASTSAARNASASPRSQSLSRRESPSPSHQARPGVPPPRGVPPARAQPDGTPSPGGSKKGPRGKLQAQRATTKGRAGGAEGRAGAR

[4] = molecular target: Serine/threonine-protein kinase Chk2 (Homo sapiens) (UniProt O96017); assay: Inhibition of recombinant human N-terminal GST/C-terminal His6-tagged CHK2 (5 to 543 residues) expressed in Escherichia coli assessed as remaining activity at 1 uM using CHKtide as substrate incubated for 30 mins in presence of [gamma-33P]ATP by filter binding method relative to control
[5] = molecular target: Ephrin type-B receptor 1 (Homo sapiens) (UniProt P54762); assay: Inhibition of recombinant human N-terminal His6-tagged EPHB1 (565 to 984 residues) expressed in baculovirus infected Sf21 cells assessed as remaining activity at 1 uM using Poly (Glu,Tyr) as substrate incubated for 30 mins in presence of [gamma-33P]ATP by filter binding method relative to control
[6] = molecular target: CDK9/cyclin T1 (Homo sapiens) (UniProt O60563+P50750); assay: as §1, with “CDK9 (1” for “MLK1 (132”, “372 residues)/Cyclin T1 (1 to 726” for “413”, “YSPTSPSYSPTSPSYSPTSPKKK” for “MBP”
[7] = molecular target: Ephrin type-B receptor 4 (Homo sapiens) (UniProt P54760); assay: Inhibition of human EPHB4 at 1 uM using polyEY as substrate in presence of 33P-ATP by ProQinase assay
[8] = molecular target: Dual specificity tyrosine-phosphorylation-regulated kinase 1B (Homo sapiens) (UniProt Q9Y463); assay: Inhibition of human DYRK1B at 1 uM using RBER-CHKtide as substrate in presence of 33P-ATP by ProQinase assay
Sequence of Dual specificity tyrosine-phosphorylation-regulated kinase 1B (Homo sapiens) (Q9Y463 whole entry, looked up): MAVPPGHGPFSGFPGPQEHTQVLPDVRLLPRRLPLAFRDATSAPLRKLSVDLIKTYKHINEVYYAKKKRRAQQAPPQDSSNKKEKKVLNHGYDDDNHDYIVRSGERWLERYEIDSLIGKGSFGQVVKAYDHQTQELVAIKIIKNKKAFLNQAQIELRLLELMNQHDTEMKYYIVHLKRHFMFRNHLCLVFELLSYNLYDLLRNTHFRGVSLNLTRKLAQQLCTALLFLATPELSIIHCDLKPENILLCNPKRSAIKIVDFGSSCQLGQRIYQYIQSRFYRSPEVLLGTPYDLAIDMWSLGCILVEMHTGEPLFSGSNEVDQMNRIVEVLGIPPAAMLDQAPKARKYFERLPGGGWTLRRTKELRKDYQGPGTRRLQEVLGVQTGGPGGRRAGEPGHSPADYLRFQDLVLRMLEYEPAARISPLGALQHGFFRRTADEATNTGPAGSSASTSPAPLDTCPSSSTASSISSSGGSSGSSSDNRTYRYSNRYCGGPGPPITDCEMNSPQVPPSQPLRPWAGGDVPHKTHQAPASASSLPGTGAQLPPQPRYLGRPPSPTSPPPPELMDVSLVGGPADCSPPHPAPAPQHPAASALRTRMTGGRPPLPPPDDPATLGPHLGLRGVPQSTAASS

[9] = molecular target: TGF-beta receptor type-1 (Homo sapiens) (UniProt P36897); assay: Inhibition of human TGFBR1 at 1 uM using RBER-CHKtide as substrate in presence of 33P-ATP by ProQinase assay
[10] = molecular target: MAP kinase-activated protein kinase 3 (Homo sapiens) (UniProt Q16644); assay: Inhibition of human MAPKAPK3 at 1 uM using bio-4xCHKT as substrate in presence of 33P-ATP by ProQinase assay
[11] = molecular target: Calcium/calmodulin-dependent protein kinase type IV (Homo sapiens) (UniProt Q16566); assay: Inhibition of human CAMK4 at 1 uM using JUN as substrate in presence of 33P-ATP by ProQinase assay
[12] = molecular target: LIM domain kinase 2 (Homo sapiens) (UniProt P53671); assay: Inhibition of human LIMK2 at 1 uM using CFL1 as substrate in presence of 33P-ATP by ProQinase assay
[13] = molecular target: Tyrosine-protein kinase ABL2 (Homo sapiens) (UniProt P42684); assay: Inhibition of human ABL2 at 1 uM using poly(Ala,Glu,Lys,Tyr) as substrate in presence of 33P-ATP by ProQinase assay
Sequence of Tyrosine-protein kinase ABL2 (Homo sapiens) (P42684 whole entry, canonical isoform): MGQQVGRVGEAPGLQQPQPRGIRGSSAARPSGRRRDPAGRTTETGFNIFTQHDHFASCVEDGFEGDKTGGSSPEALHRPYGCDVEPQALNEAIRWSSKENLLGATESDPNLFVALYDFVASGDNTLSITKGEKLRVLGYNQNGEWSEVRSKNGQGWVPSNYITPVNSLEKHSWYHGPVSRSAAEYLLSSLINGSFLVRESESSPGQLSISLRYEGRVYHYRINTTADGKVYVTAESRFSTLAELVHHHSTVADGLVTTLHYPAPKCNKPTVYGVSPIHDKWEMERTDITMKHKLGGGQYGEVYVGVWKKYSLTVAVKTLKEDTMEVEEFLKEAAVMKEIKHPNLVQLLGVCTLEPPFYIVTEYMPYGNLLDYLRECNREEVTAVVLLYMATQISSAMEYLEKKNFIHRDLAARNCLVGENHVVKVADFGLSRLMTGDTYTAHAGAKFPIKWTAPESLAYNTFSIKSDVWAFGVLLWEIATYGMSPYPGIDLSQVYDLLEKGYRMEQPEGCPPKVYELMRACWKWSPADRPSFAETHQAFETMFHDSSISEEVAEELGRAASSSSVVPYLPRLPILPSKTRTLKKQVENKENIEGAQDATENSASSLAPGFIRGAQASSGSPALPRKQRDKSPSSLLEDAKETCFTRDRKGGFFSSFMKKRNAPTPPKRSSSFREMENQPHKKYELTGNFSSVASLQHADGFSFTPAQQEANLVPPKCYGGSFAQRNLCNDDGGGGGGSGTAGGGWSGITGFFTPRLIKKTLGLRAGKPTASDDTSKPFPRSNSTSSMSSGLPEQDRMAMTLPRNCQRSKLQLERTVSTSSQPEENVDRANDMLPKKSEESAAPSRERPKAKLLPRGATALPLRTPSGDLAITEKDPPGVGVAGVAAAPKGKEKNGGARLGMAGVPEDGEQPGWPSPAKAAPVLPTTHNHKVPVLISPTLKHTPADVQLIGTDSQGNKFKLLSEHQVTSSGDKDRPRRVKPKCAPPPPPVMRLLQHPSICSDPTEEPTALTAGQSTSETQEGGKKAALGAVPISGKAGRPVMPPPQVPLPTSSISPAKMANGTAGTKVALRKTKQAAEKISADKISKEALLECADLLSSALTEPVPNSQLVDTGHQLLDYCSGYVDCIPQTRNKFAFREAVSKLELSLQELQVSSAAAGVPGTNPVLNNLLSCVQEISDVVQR

[14] = molecular target: Phosphorylase b kinase gamma catalytic chain, skeletal muscle/heart isoform (Homo sapiens) (UniProt Q16816); assay: Inhibition of human PHKG1 at 1 uM using 3xChocktide-PKC as substrate in presence of 33P-ATP by ProQinase assay
[15] = molecular target: Protein kinase C zeta type (Homo sapiens) (UniProt Q05513); assay: Inhibition of human PKCzeta at 1 uM using 3xChocktide-PKC as substrate in presence of 33P-ATP by ProQinase assay
[16] = molecular target: STE20/SPS1-related proline-alanine-rich protein kinase (Homo sapiens) (UniProt Q9UEW8); assay: Inhibition of human STK39 at 1 uM using RBER-CDC25tide as substrate in presence of 33P-ATP by ProQinase assay
[17] = molecular target: Serine/threonine-protein kinase pim-1 (Homo sapiens) (UniProt P11309); assay: Inhibition of human PIM1 at 1 uM using RBER-GSK3 as substrate in presence of 33P-ATP by ProQinase assay
Sequence of Serine/threonine-protein kinase pim-1 (Homo sapiens) (P11309 whole entry, looked up): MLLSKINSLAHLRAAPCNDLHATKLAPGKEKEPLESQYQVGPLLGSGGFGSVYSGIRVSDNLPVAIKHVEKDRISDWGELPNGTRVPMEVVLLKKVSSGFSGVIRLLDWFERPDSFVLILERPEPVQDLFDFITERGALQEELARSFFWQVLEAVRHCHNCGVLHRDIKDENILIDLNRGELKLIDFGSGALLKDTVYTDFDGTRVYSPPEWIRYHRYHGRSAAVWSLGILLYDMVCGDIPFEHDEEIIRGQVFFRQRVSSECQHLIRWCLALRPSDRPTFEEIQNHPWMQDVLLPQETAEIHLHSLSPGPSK

[18] = molecular target: Protein kinase C eta type (Homo sapiens) (UniProt P24723); assay: Inhibition of human PKCeta at 1 uM using histon H2B as substrate in presence of 33P-ATP by ProQinase assay
[19] = molecular target: Cyclin-dependent kinase 5/CDK5 activator 1 (Homo sapiens) (UniProt Q00535+Q15078); assay: Inhibition of human CDK5/p25NCK at 1 uM using RBER-CHKtide as substrate in presence of 33P-ATP by ProQinase assay; format: protein-complex assay
[20] = molecular target: Casein kinase I isoform gamma-1 (Homo sapiens) (UniProt Q9HCP0); assay: Inhibition of human CK1gamma1 at 1 uM using casein as substrate in presence of 33P-ATP by ProQinase assay
[21] = molecular target: Glycogen synthase kinase-3 alpha (Homo sapiens) (UniProt P49840); assay: Inhibition of human GSK3alpha at 1 uM using SUPT5 754-837 as substrate in presence of 33P-ATP by ProQinase assay
[22] = molecular target: Mitogen-activated protein kinase kinase kinase 3 (Homo sapiens) (UniProt Q99759); assay: Inhibition of human MEKK3 at 1 uM using casein as substrate in presence of 33P-ATP by ProQinase assay
[23] = molecular target: Phosphatidylinositol 4-kinase type 2-alpha (Homo sapiens, UniProt Q9BTU6); assay: Inhibition of PI4K2alpha (unknown origin) at 1 uM
[24] = molecular target: Phosphatidylinositol 4-phosphate 3-kinase C2 domain-containing subunit beta (Homo sapiens, UniProt O00750); assay: Inhibition of human PIK3C2B using PIP2/PS as substrate by ADP-Glo assay
Sequence of Phosphatidylinositol 4-phosphate 3-kinase C2 domain-containing subunit beta (O00750 whole entry, the tested form may be a part): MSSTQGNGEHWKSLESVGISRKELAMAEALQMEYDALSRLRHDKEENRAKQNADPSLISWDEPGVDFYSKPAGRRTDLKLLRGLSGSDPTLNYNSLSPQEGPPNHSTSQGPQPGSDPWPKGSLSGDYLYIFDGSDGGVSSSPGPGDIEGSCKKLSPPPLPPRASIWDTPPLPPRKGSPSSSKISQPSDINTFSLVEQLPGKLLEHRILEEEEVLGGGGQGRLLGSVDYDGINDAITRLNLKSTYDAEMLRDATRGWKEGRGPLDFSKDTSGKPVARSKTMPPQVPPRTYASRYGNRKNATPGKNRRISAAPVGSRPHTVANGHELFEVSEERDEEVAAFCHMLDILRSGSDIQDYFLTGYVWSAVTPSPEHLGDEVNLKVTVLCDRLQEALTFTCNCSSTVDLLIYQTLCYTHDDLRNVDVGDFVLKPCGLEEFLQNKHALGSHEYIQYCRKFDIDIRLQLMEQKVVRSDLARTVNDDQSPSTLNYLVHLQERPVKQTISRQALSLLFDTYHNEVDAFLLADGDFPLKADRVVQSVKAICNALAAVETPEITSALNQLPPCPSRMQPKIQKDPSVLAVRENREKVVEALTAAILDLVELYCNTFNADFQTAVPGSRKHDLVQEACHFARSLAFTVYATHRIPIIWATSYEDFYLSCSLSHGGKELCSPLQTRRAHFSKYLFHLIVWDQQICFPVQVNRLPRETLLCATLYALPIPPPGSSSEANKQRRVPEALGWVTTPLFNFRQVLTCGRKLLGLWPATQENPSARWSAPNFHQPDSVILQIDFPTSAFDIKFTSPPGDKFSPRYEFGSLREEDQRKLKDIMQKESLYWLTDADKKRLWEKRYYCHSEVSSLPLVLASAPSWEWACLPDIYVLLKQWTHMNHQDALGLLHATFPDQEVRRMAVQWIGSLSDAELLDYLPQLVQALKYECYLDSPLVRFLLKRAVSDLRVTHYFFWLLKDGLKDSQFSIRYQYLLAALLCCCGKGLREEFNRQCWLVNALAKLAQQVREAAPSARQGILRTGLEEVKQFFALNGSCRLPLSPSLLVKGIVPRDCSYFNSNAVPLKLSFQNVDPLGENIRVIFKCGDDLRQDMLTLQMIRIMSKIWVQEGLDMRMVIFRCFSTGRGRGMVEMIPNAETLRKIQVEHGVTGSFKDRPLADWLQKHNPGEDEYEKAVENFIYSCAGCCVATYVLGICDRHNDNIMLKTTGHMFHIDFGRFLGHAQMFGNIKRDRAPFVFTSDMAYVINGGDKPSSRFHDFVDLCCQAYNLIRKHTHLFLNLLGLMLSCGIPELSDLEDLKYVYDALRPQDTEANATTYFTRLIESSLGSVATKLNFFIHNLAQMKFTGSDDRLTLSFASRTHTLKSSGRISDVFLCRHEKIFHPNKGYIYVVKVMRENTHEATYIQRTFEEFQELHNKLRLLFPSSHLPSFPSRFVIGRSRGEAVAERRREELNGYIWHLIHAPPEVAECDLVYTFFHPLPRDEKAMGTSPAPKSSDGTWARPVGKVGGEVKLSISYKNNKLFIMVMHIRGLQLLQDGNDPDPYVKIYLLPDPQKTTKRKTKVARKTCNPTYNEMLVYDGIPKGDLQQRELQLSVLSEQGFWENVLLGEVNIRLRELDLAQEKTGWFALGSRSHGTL

CC(C)(O)CNc1ncc(-c2ccnc(Nc3ccnc(Cl)c3)n2)c(CC2CC2)n1
Activity (Homo sapiens): 122% | Activity [1]: 119% | Activity [2]: 108% | Activity [3]: 106% | Activity [4]: 103% | Activity [5]: 99% | Activity [6]: 91% | inhibition [7]: inactive | inhibition [8]: inactive | inhibition [9]: inactive | inhibition [10]: inactive | inhibition [11]: inactive | inhibition [12]: inactive | inhibition [13]: inactive | inhibition [14]: inactive | inhibition [15]: inactive | inhibition [16]: inactive | inhibition [17]: inactive | inhibition [18]: inactive | inhibition [19]: inactive | inhibition [20]: inactive | inhibition [21]: inactive | inhibition [22]: inactive | inhibition [23]: inactive | IC50 [24]: > 10 µM
